Experimental findings from patent US5021458A, “Amine derivatives and fungicides containing the same” (Kaken Pharmaceutical Co., Ltd., priority 1984, dated 1991) are described below.

In brackets after ≈: the same amount, converted by molar mass.

The test system of data set [1] is Trichophyton mentagrophytes. Kind of data set: In vitro antifungal activity test (Test Example 1), Sabouraud's agar, Trichophyton mentagrophytes. It counts as cell-based. Particulars: 168 h; (a) Trichophyton mentagrophytes; 27° C., 7 days; read-out: minimal growth-inhibitory concentration (MIC). Here is the method: (§1) The antifungal activity of the compound of the present invention against Trichophyton metagrophytes, Trichophyton interdigitale and Trichophyton rubrum was tested employing Sabouraud's agar medium.
(§2) Each test compound shown in Table 4 was dissolved into 1 ml of ethanol and thereto distilled water was added to adjust to the concentration of 1000 μg/ml. In this way twofold dilution series was made, 1 ml of which was respectively taken into shale and therewith 9 ml of Sabouraud's agar medium was mixed to form plate medium.
(§3) In this plate medium was implanted 0.0005 ml of each test fungus at 2×10^6 spores/ml by the microplanter MIP-2 (Sakuma Seisakusho Co., Ltd.) and was incubated at 27° C. for 7 days. The results were shown in Table 2 as the minimal growth-inhibitory concentration (MIC, μg/ml).

In data set [2] the test system is Trichophyton interdigitale. Kind of data set: In vitro antifungal activity test (Test Example 1), Sabouraud's agar, Trichophyton interdigitale. The following applies: 168 h; (b) Trichophyton interdigitale; 27° C., 7 days; read-out: minimal growth-inhibitory concentration (MIC). It counts as cell-based. Here is the method: as §1, §2, §3
In data set [3] the test system is Trichophyton mentagrophytes. The experiment in a line: Test on treatment of trichophytosis in guinea pig (Test Example 2). Particulars: 0.2 ml of 0.1 % solution in ethanol, once in a day for ten days since 48 hours after infection; guinea pig back skin. It counts as in vivo. How it is done: In the back of male Hartley guinea pig weighing 600° to 700 g, four portions were unhaired in an area of 4 cm^2 respectively and rubbed lightly with sandpaper, to which the second generation of Trichophyton mentagrophytes incubated inversely from another guinea pig was infected at 1×10^5 spores per portion. The test compounds obtained in Example 1 was dissolved in ethanol and 0.2 ml of the resultant 0.1 % solution was applied to the infected portions once in a day for ten days since 48 hours after the infection. Test animal was killed 2 days after the last treatment and 10 tissue specimens from each infected portions were placed on Sabouraud's plates containing cycloheximide and kanamycin, which were incubated at 27° C. for 7 days.
inhibitory ratio ={1-(number of tissue specimens found fungi/number of tissue specimens incubated inversely)}×100

A further data set relates to Trichophyton rubrum. Kind of data set: In vitro antifungal activity test (Test Example 1), Sabouraud's agar, Trichophyton rubrum. Particulars: 168 h; (c) Trichophyton rubrum; 27° C., 7 days; read-out: minimal growth-inhibitory concentration (MIC). It counts as cell-based. Here is the method: as §1, §2, §3
The nature of data set [4]: Side effect test on guinea pig skin (Test Example 3). It counts as in vivo, male Hartley guinea pig. Particulars: 0.2 ml/day of 0.5 % solution in ethanol, once in a day for ten days; lightly rubbed guinea pig skin. Here is the method:
Two portions in the back of male Hartley guinea pig weighing 600° to 700 g were unhaired in an area of 4 cm^2 respectively in order to examine side effects of the test compounds. The next day unhaired portions were lightly rubbed with sandpaper. The test compounds obtained in Example 1 was dissolved in ethanol and 0.2 ml/day of the resultant 0.5 % solution was applied to one of the unhaired portions, while 0.2 ml/day of only ethanol was applied to the other portions, once in a day for ten days respectively.

For `CN(Cc1ccc(C(C)(C)C)cc1)Cc1cccc2ccccc12.Cl` [Example 1, N-(4-tert-butylbenzyl)-N-methyl-1-naphthylmethylamine hydrochloride], the MIC was found to be 0.0125 µg/mL in data set [1], 0.006 µg/mL in data set [2] and 0.003 µg/mL in the data set on Trichophyton rubrum. In addition, the inhibitory ratio in data set [3] was 82%. Moreover, the side effects entry in data set [4] is “side effects such as, for instance, erythema and papula were not observed”.

For the compound `Cc1ccc2ccccc2c1CN(C)Cc1ccc(C(C)(C)C)cc1` [Example 2], the figures for the MIC (in data set [1]; in data set [2]; in the data set with Trichophyton rubrum) were 0.2 µg/mL (≈ 0.603 µM), 0.1 µg/mL (≈ 0.302 µM) and 0.1 µg/mL (≈ 0.302 µM), respectively.

Turning to `Cc1ccc(CN(C)Cc2ccc(C(C)(C)C)cc2)c2ccccc12` [Example 3], the MIC in data set [1] turned out to be 0.1 µg/mL (≈ 0.302 µM); in data set [2] it was 0.05 µg/mL (≈ 0.151 µM); with Trichophyton rubrum it was 0.025 µg/mL (≈ 0.0754 µM).

Regarding `CN(Cc1ccc(C(C)(C)C)cc1)Cc1ccc(F)c2ccccc12` [Example 4], the MIC worked out at 0.025 µg/mL (≈ 0.0745 µM) in data set [1], 0.006 µg/mL (≈ 0.0179 µM) in data set [2] and 0.006 µg/mL (≈ 0.0179 µM) in the data set on Trichophyton rubrum.

Turning to `CN(Cc1ccc(C(C)(C)C)cc1)Cc1ccc(Cl)c2ccccc12` [Example 5], the MIC in data set [1] was found to be 0.1 µg/mL (≈ 0.284 µM); in data set [2], 0.1 µg/mL (≈ 0.284 µM); in the data set on Trichophyton rubrum, 0.025 µg/mL (≈ 0.071 µM).

With `CN(Cc1ccc(C(C)(C)C)cc1)Cc1ccc(Br)c2ccccc12` [Example 6], the figures for the MIC (in data set [1]; in data set [2]; with Trichophyton rubrum) were 0.2 µg/mL (≈ 0.505 µM), 0.2 µg/mL (≈ 0.505 µM) and 0.05 µg/mL (≈ 0.126 µM), respectively.

With `CN(Cc1ccc(C(C)(C)C)cc1)Cc1ccc(I)c2ccccc12` [Example 7], the figures for the MIC (in data set [1]; in data set [2]; with Trichophyton rubrum) were 0.78 µg/mL (≈ 1.76 µM), 0.39 µg/mL (≈ 0.88 µM) and 0.39 µg/mL (≈ 0.88 µM), respectively.

Consider `CN(Cc1ccc(C(C)(C)C)cc1)Cc1cccc2c([N+](=O)[O-])cccc12` [Example 8], for which the MIC amounted to 0.1 µg/mL (≈ 0.276 µM) in data set [1], 0.05 µg/mL (≈ 0.138 µM) in data set [2] and 0.025 µg/mL (≈ 0.069 µM) in the data set with Trichophyton rubrum.

Take `CC(c1cccc2ccccc12)N(C)Cc1ccc(C(C)(C)C)cc1` (stereo not shown) [Example 9, N-4-tert-Butylbenzyl-N-methyl-1-(1-naphthyl)ethylamine]: the MIC in data set [1] is 0.025 µg/mL (≈ 0.0754 µM); in data set [2], 0.025 µg/mL (≈ 0.0754 µM); with Trichophyton rubrum, 0.003 µg/mL (≈ 0.00905 µM).

As to `CN(Cc1ccc(C(C)(C)C)cc1)Cc1ccc2ccccc2c1` [Example 10], the MIC in data set [1] worked out at 1.56 µg/mL (≈ 4.91 µM); in data set [2], 1.56 µg/mL (≈ 4.91 µM); with Trichophyton rubrum it was 0.39 µg/mL (≈ 1.23 µM).

With `CCC(C)(C)c1ccc(CN(C)Cc2cccc3ccccc23)cc1` [Example 12, N-Methyl-N-4-tert-pentylbenzyl-1-naphthylmethylamine], the MIC in data set [1] was 0.0125 µg/mL (≈ 0.0377 µM); in data set [2], 0.0125 µg/mL (≈ 0.0377 µM); with Trichophyton rubrum, 0.006 µg/mL (≈ 0.0181 µM).

For the compound `Cc1cccc(CN(C)Cc2cccc3ccccc23)c1` [Example 13], the MIC stood at 25 µg/mL (≈ 90.8 µM) in data set [1], 25 µg/mL (≈ 90.8 µM) in data set [2] and 12.5 µg/mL (≈ 45.4 µM) in the data set with Trichophyton rubrum.

As for `CN(Cc1cccc(C(F)(F)F)c1)Cc1cccc2ccccc12` [Example 14], the results for the MIC (in data set [1]; in data set [2]; in the data set with Trichophyton rubrum) were 12.5 µg/mL (≈ 38 µM), 6.25 µg/mL (≈ 19 µM) and 6.25 µg/mL (≈ 19 µM), respectively.

As for `Cc1ccc(CN(C)Cc2cccc3ccccc23)cc1` [Example 15], the MIC in data set [1] turned out to be 0.78 µg/mL (≈ 2.83 µM); in data set [2], 3.13 µg/mL (≈ 11.4 µM); in the data set with Trichophyton rubrum, 0.39 µg/mL (≈ 1.42 µM).

Regarding `CN(Cc1ccc(C2CCCCC2)cc1)Cc1cccc2ccccc12` [Example 16], the MIC came out at 3.13 µg/mL (≈ 9.11 µM) in data set [1], 1.56 µg/mL (≈ 4.54 µM) in data set [2] and 1.56 µg/mL (≈ 4.54 µM) in the data set on Trichophyton rubrum.

Take `CN(Cc1ccc(Cl)c(Cl)c1)Cc1cccc2ccccc12` [Example 17]: the MIC (in data set [1]; in data set [2]; with Trichophyton rubrum) was 1.56 µg/mL (≈ 4.72 µM) throughout.

Take `CCN(Cc1ccc(C(C)(C)C)cc1)Cc1cccc2ccccc12` [Example 18]: the values for the MIC (in data set [1]; in data set [2]; in the data set on Trichophyton rubrum) were 0.1 µg/mL (≈ 0.302 µM), 0.05 µg/mL (≈ 0.151 µM) and 0.006 µg/mL (≈ 0.0181 µM), respectively.

Turning to `CCCN(Cc1ccc(C(C)(C)C)cc1)Cc1cccc2ccccc12` [Example 19], the MIC came to 0.78 µg/mL (≈ 2.26 µM) in data set [1], 0.2 µg/mL (≈ 0.579 µM) in data set [2] and 0.2 µg/mL (≈ 0.579 µM) with Trichophyton rubrum.

Consider `CCCCN(Cc1ccc(C(C)(C)C)cc1)Cc1cccc2ccccc12` [Example 20], for which the MIC came out at 6.25 µg/mL (≈ 17.4 µM) in data set [1], 6.25 µg/mL (≈ 17.4 µM) in data set [2] and 3.13 µg/mL (≈ 8.71 µM) in the data set with Trichophyton rubrum.

For `CC(C)c1ccc(CN(C)Cc2cccc3ccccc23)cc1` [Example 22, N-4-Isopropylbenzyl-N-methyl-1-naphthylmethylamine], the MIC amounted to 0.025 µg/mL (≈ 0.0824 µM) in data set [1], 0.1 µg/mL (≈ 0.33 µM) in data set [2] and 0.0125 µg/mL (≈ 0.0412 µM) with Trichophyton rubrum.

Consider `CCc1ccc(CN(C)Cc2cccc3ccccc23)cc1` [Example 23], for which the figures for the MIC (in data set [1]; in data set [2]; in the data set on Trichophyton rubrum) were 0.1 µg/mL (≈ 0.346 µM), 0.2 µg/mL (≈ 0.691 µM) and 0.1 µg/mL (≈ 0.346 µM), respectively.

In the case of `CCCCc1ccc(CN(C)Cc2cccc3ccccc23)cc1` [Example 24], the MIC in data set [1] came out at 0.1 µg/mL (≈ 0.315 µM); in data set [2] it was 0.2 µg/mL (≈ 0.63 µM); with Trichophyton rubrum it was 0.1 µg/mL (≈ 0.315 µM).

As for `Cc1ccc(CN(C)Cc2cccc3ccccc23)cc1C` [Example 25], the MIC in data set [1] came to 0.78 µg/mL (≈ 2.7 µM); in data set [2], 0.78 µg/mL (≈ 2.7 µM); with Trichophyton rubrum, 0.39 µg/mL (≈ 1.35 µM).

As to `Cc1cc(C)cc(CN(C)Cc2cccc3ccccc23)c1` [Example 26], the MIC in data set [1] is 12.5 µg/mL (≈ 43.2 µM); in data set [2], 12.5 µg/mL (≈ 43.2 µM); in the data set with Trichophyton rubrum, 6.25 µg/mL (≈ 21.6 µM).

Regarding `CN(Cc1ccc(C(C)(C)C)cc1)Cc1c(O)ccc2ccccc12.Cl` [Example 28, N-(4-tert-butylbenzyl)-N-methyl-2-hydroxy-1-naphthylmethylamine hydrochloride], the values for the MIC (in data set [1]; in data set [2]; in the data set on Trichophyton rubrum) were 25 µg/mL, 12.5 µg/mL and 6.25 µg/mL, respectively.

In the case of `CN(Cc1ccc(C(C)(C)C)cc1)Cc1csc2ccccc12` [Example 29, N-4-tert-Butylbenzyl-N-methyl-3-benzo[b]-thienylmethylamine], the MIC (in data set [1]; with Trichophyton rubrum) was 0.05 µg/mL (≈ 0.155 µM) throughout.

On to `CCN(Cc1ccc(C(C)(C)C)cc1)Cc1csc2ccccc12` [Example 30], for which the MIC (in data set [1]; with Trichophyton rubrum) was 0.78 µg/mL (≈ 2.31 µM) each time.

In the case of `Cc1cccc2c(CN(C)Cc3ccc(C(C)(C)C)cc3)csc12` [Example 33], the MIC was determined as 0.2 µg/mL (≈ 0.593 µM) in data set [1] and 0.1 µg/mL (≈ 0.296 µM) in the data set with Trichophyton rubrum.

On to `CN(Cc1ccc(C(C)(C)C)cc1)Cc1cccc2sccc12` [Example 34], for which the MIC (in data set [1]; in the data set on Trichophyton rubrum) was 0.025 µg/mL (≈ 0.0773 µM) throughout.

As for `CN(Cc1ccc(C(C)(C)C)cc1)Cc1cccc2ccsc12` [Example 35], the MIC (in data set [1]; in the data set on Trichophyton rubrum) was 0.78 µg/mL (≈ 2.41 µM) throughout.

For `CN(Cc1ccc(C(C)(C)C)cc1)Cc1cccc2c1CCCC2` [Example 39], the MIC (in data set [1]; with Trichophyton rubrum) was 0.39 µg/mL (≈ 1.21 µM) throughout.

For `CN(Cc1ccc2ccccc2c1)Cc1ccc(F)c2ccccc12` [Example 43], the MIC (in data set [1]; in the data set on Trichophyton rubrum) was 0.2 µg/mL (≈ 0.607 µM) in each case.

Regarding `Cc1ccc(CN(C)Cc2ccc3ccccc3c2)c2ccccc12` [Example 49], the MIC (in data set [1]; in the data set with Trichophyton rubrum) was 0.39 µg/mL (≈ 1.2 µM) throughout.

Regarding `CC(c1cccc2ccccc12)N(C)Cc1ccc2ccccc2c1` (stereo not shown) [Example 51], the values for the MIC (in data set [1]; in the data set on Trichophyton rubrum) were 0.39 µg/mL (≈ 1.2 µM) and 0.2 µg/mL (≈ 0.615 µM), respectively.

Consider `CN(Cc1ccc2c(c1)CCCC2)Cc1cccc2ccccc12` [Example 54], for which the MIC (in data set [1]; in the data set on Trichophyton rubrum) was 0.1 µg/mL (≈ 0.317 µM) each time.

`CCN(Cc1ccc2c(c1)CCCC2)Cc1cccc2ccccc12` [Example 56]: the MIC (in data set [1]; in the data set with Trichophyton rubrum) was 0.2 µg/mL (≈ 0.607 µM) throughout.

With `CCN(Cc1ccc2ccccc2c1)Cc1cccc2ccccc12` [Example 63], the MIC in data set [1] is 0.39 µg/mL (≈ 1.2 µM); in the data set on Trichophyton rubrum it was 0.1 µg/mL (≈ 0.307 µM).

Take `CN(Cc1ccc(C(C)(C)C)s1)Cc1cccc2ccccc12` [Example 69]: the MIC in data set [1] was 0.05 µg/mL (≈ 0.155 µM); in the data set on Trichophyton rubrum, 0.025 µg/mL (≈ 0.0773 µM).
